According to ChEMBL document CHEMBL1135131, “Nicotinanilides as inhibitors of neutrophil chemotaxis” (Bioorg Med Chem Lett, 2002):

How the values were obtained:
[1] = biological target: T1, Interleukin-8 receptors, CXCR1/CXCR2 (Homo sapiens, UniProt P25025+P25024); experiment: Inhibition against GRO-alpha driven human neutrophil chemotaxis; type: functional
T1 sequence (P25025 whole entry): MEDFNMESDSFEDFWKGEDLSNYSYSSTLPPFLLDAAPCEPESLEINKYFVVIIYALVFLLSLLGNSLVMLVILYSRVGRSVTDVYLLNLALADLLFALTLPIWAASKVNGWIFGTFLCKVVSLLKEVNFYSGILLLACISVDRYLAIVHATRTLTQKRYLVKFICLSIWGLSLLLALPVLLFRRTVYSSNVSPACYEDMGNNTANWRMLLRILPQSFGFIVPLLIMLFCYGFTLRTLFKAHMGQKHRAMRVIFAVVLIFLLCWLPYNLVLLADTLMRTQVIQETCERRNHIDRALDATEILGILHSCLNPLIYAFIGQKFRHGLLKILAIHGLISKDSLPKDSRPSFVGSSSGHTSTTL
T1 sequence (P25024 whole entry): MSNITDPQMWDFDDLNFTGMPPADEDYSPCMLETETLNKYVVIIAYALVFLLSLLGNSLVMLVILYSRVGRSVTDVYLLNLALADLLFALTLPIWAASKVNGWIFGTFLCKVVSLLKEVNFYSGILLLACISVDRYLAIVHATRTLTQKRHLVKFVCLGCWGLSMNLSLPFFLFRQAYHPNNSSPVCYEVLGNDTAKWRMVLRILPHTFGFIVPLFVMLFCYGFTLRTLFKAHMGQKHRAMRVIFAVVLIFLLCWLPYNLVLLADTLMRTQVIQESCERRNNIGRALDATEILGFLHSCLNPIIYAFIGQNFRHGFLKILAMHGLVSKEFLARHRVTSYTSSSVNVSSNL

[2] = biological target: T2, C-X-C chemokine receptor type 2 (Homo sapiens, UniProt P25025); experiment: Displacement of [125I]IL-8 from CHO cell membranes expressing human […] chemokine receptor 2 (CXCR2 filter mat binding assay)
T2 sequence (P25025 whole entry): T1 sequence (P25025 whole entry)

[3] = Inhibition against formyl-methionyl-leucyl (FMLP) phenylalanine driven human neutrophil chemotaxis; type: functional
[4] = biological target: T2, C-X-C chemokine receptor type 2; experiment: Displacement of [125I]IL-8 from CHO cell membranes expressing human […] chemokine receptor 2

IC50 [1] [nM] | IC50 [2] [nM] | IC50 [3] [nM] | IC50 [4] [nM] | SMILES
> 20000 |  |  |  | CNC(=O)COc1ccc(C(=O)Nc2ccc(F)cc2)cn1
> 20000 | 1200 |  |  | O=C(O)CSc1ccc(C(=O)Nc2ccc(F)cc2)cn1
50 |  | > 40000 |  | O=C(COc1ccc(C(=O)Nc2ccc(F)cc2)cn1)OCc1cccc(F)c1
410 |  |  |  | O=C(COc1ccc(C(=O)Nc2ccc(F)cc2)cn1)Oc1ccccc1
680 |  | > 40000 |  | O=C(COc1ccc(C(=O)Nc2ccc(F)cc2)cn1)OCCCCC1CCCCC1
5100 |  |  |  | O=C(O)CCCSc1ccc(C(=O)Nc2ccc(F)cc2)cn1
> 20000 |  |  |  | O=C(COc1ccc(C(=O)Nc2ccc(F)cc2)cn1)NC1CCCC1
42 |  |  | 32 | COC(=O)CSc1ccc(C(=O)Nc2ccc(F)cc2)cn1
46 |  | > 40000 |  | CCCOC(=O)CSc1ccc(C(=O)Nc2ccc(F)cc2)cn1
760 |  | > 40000 |  | COC(=O)CCSc1ccc(C(=O)Nc2ccc(F)cc2)cn1
1000 |  | > 40000 |  | O=C(COc1ccc(C(=O)Nc2ccc(F)cc2)cn1)Nc1ccccc1
200 |  | > 40000 |  | CC(C)CCOC(=O)COc1ccc(C(=O)Nc2ccc(F)cc2)cn1
110 |  | > 40000 |  | COC(=O)COc1ccc(C(=O)Nc2ccc(F)cc2)cn1
83 |  |  |  | O=C(CSc1ccc(C(=O)Nc2ccc(F)cc2)cn1)OCc1ccc(Br)cc1
160 |  | > 40000 |  | CCOC(=O)COc1ccc(C(=O)Nc2ccc(F)cc2)cn1
12500 |  | > 40000 |  | CN(C(=O)COc1ccc(C(=O)Nc2ccc(F)cc2)cn1)c1ccccc1
220 |  | > 40000 |  | O=C(COc1ccc(C(=O)Nc2ccc(F)cc2)cn1)OC1CCCCC1
43 |  |  |  | O=C(CSc1ccc(C(=O)Nc2ccc(F)cc2)cn1)OCc1cccc(F)c1
2700 |  | > 40000 |  | O=C(COc1ccc(C(=O)Nc2ccc(F)cc2)cn1)Nc1cccc(Br)c1
360 |  |  |  | COC(=O)COc1ccc(NC(=O)c2ccc(F)cc2)cn1
> 20000 |  |  |  | O=C(O)CCSc1ccc(C(=O)Nc2ccc(F)cc2)cn1
220 |  | > 40000 |  | O=C(COc1ccc(C(=O)Nc2ccc(F)cc2)cn1)Nc1cccnc1
94 |  | > 40000 |  | O=C(COc1ccc(C(=O)Nc2ccc(F)cc2)cn1)OCc1ccccc1
